Calls of active or inactive are those of the source.
Key:
[1] = cytotoxicity toward NIH3T3 fibroblasts, dose response, counter-screen, cell-based, ATP luminescence, mouse fibroblasts (AID 2010); type: functional;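 note: cells exposed to compound for about 90 hours before reading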
[2] = inhibitors of intracellular T. cruzi replication, confirmation, NIH3T3 host cells, beta-gal luminescence (AID 2044); type: functional, cell-based;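 note: intracellular parasites grown in NIH/3T3 mouse fibroblasts as host cells; luminescent beta-galactosidase reporter signal from transgenic T. cruzi replicating inside host cells; inhibitors lower the luminescence signal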
[3] = biological target: T1, Short transient receptor potential channel 4 (Mus musculus, UniProt Q9QUQ5); experiment: mouse TRPC4 channel activators, dose response, cell-based, HEK293 TRPC4/mu-opioid, Fluo-4 calcium (AID 434937); type: functional
T1 sequence (Q9QUQ5 whole entry): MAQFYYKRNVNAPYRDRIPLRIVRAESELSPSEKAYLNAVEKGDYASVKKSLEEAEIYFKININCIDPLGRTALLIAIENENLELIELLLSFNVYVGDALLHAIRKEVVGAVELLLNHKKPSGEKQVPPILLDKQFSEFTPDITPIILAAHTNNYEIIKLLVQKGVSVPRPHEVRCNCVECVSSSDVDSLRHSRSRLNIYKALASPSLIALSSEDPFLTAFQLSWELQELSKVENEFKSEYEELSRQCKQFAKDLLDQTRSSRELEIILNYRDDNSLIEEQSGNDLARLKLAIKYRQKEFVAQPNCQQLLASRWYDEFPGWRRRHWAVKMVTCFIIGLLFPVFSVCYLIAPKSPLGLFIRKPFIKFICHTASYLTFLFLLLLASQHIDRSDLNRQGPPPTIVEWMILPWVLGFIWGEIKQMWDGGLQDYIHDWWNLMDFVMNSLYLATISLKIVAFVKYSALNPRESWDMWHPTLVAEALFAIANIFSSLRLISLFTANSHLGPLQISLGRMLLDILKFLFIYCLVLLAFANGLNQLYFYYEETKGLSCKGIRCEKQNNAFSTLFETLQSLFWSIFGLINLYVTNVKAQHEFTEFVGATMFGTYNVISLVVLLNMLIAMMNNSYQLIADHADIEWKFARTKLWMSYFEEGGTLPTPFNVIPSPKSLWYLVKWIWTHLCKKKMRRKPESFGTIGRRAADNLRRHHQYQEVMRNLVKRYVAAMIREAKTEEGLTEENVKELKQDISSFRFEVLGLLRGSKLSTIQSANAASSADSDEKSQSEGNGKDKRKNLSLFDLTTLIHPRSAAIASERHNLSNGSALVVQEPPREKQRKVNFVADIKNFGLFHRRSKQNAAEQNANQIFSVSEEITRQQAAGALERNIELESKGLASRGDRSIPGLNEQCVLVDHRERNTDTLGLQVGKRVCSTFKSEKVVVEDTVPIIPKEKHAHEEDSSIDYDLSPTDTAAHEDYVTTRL

[4] = biological target: Glyceraldehyde-3-phosphate dehydrogenase (Homo sapiens, UniProt P04406)
Chain of Glyceraldehyde-3-phosphate dehydrogenase (P04406 whole entry): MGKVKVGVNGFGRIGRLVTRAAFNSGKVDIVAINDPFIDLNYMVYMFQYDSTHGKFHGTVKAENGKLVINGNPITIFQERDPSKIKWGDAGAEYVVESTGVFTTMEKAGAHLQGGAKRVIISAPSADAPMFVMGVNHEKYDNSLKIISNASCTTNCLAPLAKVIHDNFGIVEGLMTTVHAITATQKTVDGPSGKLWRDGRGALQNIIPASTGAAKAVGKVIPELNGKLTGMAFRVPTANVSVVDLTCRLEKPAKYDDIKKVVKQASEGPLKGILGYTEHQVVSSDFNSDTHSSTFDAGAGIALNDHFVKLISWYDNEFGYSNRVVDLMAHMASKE

[5] = biological target: Alkaline phosphatase, placental type (Homo sapiens, UniProt P05187); experiment: PLAP enzyme inhibitors, confirmation, biochemical, luminescence (AID 1512); type: functional
Chain of Alkaline phosphatase, placental type (P05187 whole entry): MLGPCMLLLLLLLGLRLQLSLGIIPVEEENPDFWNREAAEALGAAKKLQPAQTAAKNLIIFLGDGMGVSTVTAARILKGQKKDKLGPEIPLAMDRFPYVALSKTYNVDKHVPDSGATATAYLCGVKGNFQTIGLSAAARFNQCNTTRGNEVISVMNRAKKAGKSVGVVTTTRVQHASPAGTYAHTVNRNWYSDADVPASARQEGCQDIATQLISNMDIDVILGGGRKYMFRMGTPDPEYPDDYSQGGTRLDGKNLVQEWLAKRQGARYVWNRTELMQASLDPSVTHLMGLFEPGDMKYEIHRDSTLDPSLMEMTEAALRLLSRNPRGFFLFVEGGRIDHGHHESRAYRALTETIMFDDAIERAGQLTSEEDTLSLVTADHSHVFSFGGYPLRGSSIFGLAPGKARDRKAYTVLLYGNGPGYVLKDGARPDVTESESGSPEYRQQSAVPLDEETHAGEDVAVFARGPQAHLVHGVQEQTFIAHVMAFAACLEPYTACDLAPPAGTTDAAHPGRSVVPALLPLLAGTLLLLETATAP

[6] = biological target: T2, Alkaline phosphatase, tissue-nonspecific isozyme (Homo sapiens, UniProt P05186); experiment: human TNAP enzyme inhibitors, SAR follow-up, biochemical, luminescent, dose response (AID 1056)
T2 sequence (P05186 whole entry): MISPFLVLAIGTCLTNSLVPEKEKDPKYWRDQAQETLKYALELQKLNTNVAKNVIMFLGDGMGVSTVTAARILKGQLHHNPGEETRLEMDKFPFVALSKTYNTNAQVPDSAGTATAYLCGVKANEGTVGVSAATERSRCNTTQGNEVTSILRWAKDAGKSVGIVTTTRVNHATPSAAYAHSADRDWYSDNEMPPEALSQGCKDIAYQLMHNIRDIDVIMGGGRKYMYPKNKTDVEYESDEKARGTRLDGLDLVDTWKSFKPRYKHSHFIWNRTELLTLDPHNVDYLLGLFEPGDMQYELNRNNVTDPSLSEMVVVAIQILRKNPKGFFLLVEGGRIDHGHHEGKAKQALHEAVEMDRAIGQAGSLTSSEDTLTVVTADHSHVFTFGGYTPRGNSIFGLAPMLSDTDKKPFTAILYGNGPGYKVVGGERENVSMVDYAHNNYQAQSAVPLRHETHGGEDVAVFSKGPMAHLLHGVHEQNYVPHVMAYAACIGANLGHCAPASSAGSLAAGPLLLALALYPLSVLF

[7] = biological target: Voltage-dependent T-type calcium channel subunit alpha-1H (Homo sapiens, UniProt O95180); type: functional;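 note: channel activity triggered by adding a high calcium stimulation buffer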
Chain of Voltage-dependent T-type calcium channel subunit alpha-1H (O95180 whole entry): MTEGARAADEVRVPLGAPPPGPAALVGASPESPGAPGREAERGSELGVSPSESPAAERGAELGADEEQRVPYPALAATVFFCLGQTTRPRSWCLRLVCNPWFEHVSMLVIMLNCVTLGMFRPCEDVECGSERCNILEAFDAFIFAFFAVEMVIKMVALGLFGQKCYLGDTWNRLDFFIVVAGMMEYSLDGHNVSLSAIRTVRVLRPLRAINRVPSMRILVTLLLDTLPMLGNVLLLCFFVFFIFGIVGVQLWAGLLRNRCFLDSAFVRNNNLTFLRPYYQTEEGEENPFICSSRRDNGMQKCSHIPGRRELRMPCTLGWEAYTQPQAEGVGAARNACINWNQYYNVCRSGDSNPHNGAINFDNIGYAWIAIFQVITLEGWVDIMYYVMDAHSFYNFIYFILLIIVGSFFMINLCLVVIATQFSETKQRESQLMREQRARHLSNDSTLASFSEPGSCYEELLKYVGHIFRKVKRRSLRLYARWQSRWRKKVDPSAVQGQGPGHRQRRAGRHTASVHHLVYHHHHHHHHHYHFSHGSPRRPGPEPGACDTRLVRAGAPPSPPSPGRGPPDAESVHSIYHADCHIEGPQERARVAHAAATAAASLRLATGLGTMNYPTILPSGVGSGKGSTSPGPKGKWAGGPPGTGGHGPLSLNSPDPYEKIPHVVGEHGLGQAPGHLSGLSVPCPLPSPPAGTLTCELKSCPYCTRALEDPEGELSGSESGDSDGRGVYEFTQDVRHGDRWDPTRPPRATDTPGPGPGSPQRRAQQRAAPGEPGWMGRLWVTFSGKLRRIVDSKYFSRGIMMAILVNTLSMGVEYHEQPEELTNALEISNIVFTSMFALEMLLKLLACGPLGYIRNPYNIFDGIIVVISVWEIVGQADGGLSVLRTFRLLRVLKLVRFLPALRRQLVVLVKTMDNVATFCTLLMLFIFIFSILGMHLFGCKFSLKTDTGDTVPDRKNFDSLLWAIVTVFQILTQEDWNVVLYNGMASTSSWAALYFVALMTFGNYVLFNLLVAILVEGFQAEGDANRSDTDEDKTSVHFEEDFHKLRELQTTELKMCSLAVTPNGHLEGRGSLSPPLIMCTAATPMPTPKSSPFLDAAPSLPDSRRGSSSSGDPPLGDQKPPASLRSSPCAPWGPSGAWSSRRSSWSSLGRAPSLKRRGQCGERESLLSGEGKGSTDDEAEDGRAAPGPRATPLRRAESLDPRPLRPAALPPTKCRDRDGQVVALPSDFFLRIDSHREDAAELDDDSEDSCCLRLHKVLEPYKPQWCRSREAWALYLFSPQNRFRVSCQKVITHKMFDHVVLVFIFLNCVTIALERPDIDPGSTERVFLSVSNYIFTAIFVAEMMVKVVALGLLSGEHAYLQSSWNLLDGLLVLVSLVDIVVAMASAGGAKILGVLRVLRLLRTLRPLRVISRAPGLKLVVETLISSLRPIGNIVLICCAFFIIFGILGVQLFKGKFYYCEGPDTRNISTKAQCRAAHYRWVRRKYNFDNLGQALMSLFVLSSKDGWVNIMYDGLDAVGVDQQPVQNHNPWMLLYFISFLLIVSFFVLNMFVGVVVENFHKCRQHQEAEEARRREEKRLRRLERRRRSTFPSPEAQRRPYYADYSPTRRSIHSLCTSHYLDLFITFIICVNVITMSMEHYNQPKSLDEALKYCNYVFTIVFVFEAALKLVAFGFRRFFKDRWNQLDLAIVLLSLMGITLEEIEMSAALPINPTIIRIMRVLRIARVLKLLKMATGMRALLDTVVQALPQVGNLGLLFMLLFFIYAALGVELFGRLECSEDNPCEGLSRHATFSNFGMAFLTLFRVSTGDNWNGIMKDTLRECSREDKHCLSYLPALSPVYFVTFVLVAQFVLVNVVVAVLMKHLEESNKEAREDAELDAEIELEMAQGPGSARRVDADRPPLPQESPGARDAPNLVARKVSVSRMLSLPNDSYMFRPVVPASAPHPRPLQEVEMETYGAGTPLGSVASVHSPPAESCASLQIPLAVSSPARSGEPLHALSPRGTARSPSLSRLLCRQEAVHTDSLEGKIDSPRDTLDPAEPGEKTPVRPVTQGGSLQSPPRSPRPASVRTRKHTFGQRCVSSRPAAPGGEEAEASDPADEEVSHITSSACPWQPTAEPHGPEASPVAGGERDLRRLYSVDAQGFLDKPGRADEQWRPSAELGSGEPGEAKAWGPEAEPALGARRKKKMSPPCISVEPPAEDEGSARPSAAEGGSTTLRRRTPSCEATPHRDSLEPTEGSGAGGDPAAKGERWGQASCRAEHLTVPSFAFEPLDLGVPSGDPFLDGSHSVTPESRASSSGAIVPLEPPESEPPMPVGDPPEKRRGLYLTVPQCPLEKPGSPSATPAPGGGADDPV

[8] = microbe, parasite or virus in culture; type: functional; settings: Mycobacterium tuberculosis
[9] = THP-1 cell cytotoxicity, dose response, cytotoxicity control for non-replicating M. tuberculosis project (AID 489025); type: functional
[10] = Vero E6 cell cytotoxicity, dose response, cytotoxicity control for non-replicating M. tuberculosis project, secondary assay (AID 492998); type: functional, VeroE6; settings: Vero C1008
[11] = HepG2 cell cytotoxicity, dose response, cytotoxicity control for non-replicating M. tuberculosis project (AID 489018); type: functional; settings: Mycobacterium tuberculosis
[12] = cells; type: functional
[13] = cytotoxicity toward DRD oncogenic fibroblasts, dose response, cell-based, non-viral oncogenic, luminescence (AID 1934); type: functional; settings: Homo sapiens
[14] = tested on: BJ; experiment: cytotoxicity toward BJ-TERT-LT-ST fibroblasts, dose response, cell-based, RAS-independent, luminescence (AID 1935); type: functional; settings: Homo sapiens;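 note: BJ fibroblasts immortalized with TERT plus LT and ST oncogenes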
[15] = biological target: T3, Protein RecA (Mycobacterium tuberculosis, UniProt P9WHJ3); experiment: Fluorescence Cell-Free Homogeneous Dose Retest to Identify Inhibitors of RecA-Intein Splicing Activity. [Related pubchem assays (depositor defined):AID2097, AID2223, AID489010, AID492950]; type: functional
T3 sequence (P9WHJ3 whole entry): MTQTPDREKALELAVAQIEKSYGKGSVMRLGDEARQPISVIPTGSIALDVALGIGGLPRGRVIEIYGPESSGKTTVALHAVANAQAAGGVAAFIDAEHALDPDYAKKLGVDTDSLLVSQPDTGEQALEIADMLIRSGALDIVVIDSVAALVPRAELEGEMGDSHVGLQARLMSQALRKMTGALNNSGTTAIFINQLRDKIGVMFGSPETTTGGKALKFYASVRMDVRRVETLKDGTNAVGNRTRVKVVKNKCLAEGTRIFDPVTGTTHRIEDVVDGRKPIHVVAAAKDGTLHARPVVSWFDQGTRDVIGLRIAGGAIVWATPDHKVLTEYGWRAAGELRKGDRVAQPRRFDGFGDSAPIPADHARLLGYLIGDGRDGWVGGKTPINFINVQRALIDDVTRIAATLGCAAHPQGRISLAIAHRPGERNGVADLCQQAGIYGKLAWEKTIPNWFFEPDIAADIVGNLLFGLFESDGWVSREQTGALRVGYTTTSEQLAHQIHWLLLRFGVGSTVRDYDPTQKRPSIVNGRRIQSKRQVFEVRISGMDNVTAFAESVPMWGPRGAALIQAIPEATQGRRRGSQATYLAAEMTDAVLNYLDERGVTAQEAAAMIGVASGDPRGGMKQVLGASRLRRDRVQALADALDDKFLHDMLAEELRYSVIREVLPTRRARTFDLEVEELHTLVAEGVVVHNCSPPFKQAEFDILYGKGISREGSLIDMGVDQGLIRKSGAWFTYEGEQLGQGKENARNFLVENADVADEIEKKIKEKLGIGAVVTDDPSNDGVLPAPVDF

[16] = inhibitors of SNCA 5'UTR-driven reporter translation, confirmation, H4 neuroglioma cells, luminescence (AID 1988); type: functional, cell-based
[17] = inhibitors of firefly luciferase expression or activity, dose response, H4 neuroglioma cells, luminescence (AID 1990); type: functional, cell-based
[18] = Luminescence Cell-Based Dose Response HTS to Identify Inhibitors of 5'UTR Stem-Loop Driven Prion Protein mRNA Translation in H4 Neuroglioblastoma Cells. [Related pubchem assays: 1827 (Project Summary), 1813 (Primary HTS)]; type: functional
[19] = Luminescence-based dose response cell-based high throughput screening assay for cytotoxic compounds using the IEC-6 intestinal epithelial cell line. [Related pubchem assays: 1858 (Summary AID.), 1825 (Counterscreen.), 1907 (Confirmation screen.)]; type: functional
[20] = tested on: INS1; experiment: beta cell apoptosis inhibitors, cytokine rescue, dose response, luminescence, retest (AID 449756); type: functional, cell-based; settings: Rattus norvegicus;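 note: cell death triggered by IL-1 beta plus TNF-alpha plus IFN-gamma mixture; protective hits raise ATP signal compared with cytokine alone wells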
[21] = non-specific cell cytotoxicity, dose response, cytotoxicity control for PAX8 inhibitor project, plate reader, dry powder samples (AID 743021); type: functional, cell-based
[22] = tested on: BJ; experiment: cytotoxicity toward BJ-TERT fibroblasts, dose response, cell-based, RAS-independent, luminescence (AID 1933); type: functional; settings: Homo sapiens
[23] = biological target: Paired box protein Pax-8 (Homo sapiens, UniProt Q06710); experiment: inhibitors of PAX8-driven TPO luciferase reporter, dose response, RMG-I cells, cherry-pick (AID 687027); type: functional, cell-based;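 note: luciferase reporter driven by Pax8 target thyroperoxidase promoter measured by SteadyGlo luminescence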
Chain of Paired box protein Pax-8 (Q06710 whole entry): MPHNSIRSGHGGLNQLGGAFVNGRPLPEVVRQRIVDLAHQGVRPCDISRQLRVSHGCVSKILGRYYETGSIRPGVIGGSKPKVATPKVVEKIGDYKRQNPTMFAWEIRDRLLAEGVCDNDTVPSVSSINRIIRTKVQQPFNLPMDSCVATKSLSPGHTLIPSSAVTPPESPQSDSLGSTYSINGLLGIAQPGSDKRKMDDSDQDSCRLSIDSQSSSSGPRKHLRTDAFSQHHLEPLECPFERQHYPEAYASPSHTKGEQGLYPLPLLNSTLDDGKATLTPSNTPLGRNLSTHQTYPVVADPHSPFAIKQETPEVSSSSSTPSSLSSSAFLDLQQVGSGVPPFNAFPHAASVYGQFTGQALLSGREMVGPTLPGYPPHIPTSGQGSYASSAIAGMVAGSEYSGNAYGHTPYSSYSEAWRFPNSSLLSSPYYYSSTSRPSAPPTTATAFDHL

[24] = biological target: T4, Replicative DNA helicase DnaB (Mycobacterium tuberculosis, UniProt P9WMR3); experiment: DnaB intein splicing inhibitors, dose response, biochemical, cell-free fluorescence (AID 449749); type: functional
T4 sequence (P9WMR3 whole entry): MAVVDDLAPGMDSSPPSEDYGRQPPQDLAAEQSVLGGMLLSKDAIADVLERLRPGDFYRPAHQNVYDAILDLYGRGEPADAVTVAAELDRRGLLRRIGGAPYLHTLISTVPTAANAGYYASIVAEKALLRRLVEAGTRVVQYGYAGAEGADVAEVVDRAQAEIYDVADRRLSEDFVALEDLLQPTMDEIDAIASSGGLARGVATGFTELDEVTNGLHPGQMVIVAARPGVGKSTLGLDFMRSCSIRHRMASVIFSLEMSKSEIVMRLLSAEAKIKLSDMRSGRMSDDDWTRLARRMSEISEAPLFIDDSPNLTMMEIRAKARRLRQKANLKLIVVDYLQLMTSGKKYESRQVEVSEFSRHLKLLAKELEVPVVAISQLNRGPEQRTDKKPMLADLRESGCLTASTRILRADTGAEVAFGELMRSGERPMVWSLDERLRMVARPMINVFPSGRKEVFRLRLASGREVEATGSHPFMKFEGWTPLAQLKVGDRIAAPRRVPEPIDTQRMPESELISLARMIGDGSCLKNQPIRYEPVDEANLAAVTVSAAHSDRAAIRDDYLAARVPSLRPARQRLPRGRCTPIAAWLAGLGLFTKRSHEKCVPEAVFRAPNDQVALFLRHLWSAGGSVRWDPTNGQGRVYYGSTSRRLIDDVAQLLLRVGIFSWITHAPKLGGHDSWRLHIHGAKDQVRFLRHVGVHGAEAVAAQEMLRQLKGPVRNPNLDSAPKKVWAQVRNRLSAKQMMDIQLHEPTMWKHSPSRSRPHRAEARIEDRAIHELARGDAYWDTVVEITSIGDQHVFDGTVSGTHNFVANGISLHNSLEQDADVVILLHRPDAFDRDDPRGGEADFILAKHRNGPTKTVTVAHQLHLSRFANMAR

[25] = tested on: BJ; experiment: cells; type: functional, cell-based; settings: Homo sapiens
[26] = tested on: BJ; experiment: cytotoxicity toward Ras-transformed BJeLR fibroblasts, dose response, cell-based, alamar blue fluorescence, cherrypicked samples (AID 2631); type: functional; settings: Homo sapiens;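 note: confirmatory dose-response assay in RAS-dependent BJ fibroblasts engineered with TERT, LT and ST, with cytotoxicity read by fluorescence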
[27] = biological target: DNA dC->dU-editing enzyme APOBEC-3G (Homo sapiens, UniProt Q9HC16); experiment: Dose Response confirmation of small molecule APOBEC3G DNA Deaminase Inhibitors via a fluorescence-based single-stranded DNA deaminase assay. [Related pubchem assays (depositor defined):AID493012, AID493028]; type: functional
Chain of DNA dC->dU-editing enzyme APOBEC-3G (Q9HC16 whole entry): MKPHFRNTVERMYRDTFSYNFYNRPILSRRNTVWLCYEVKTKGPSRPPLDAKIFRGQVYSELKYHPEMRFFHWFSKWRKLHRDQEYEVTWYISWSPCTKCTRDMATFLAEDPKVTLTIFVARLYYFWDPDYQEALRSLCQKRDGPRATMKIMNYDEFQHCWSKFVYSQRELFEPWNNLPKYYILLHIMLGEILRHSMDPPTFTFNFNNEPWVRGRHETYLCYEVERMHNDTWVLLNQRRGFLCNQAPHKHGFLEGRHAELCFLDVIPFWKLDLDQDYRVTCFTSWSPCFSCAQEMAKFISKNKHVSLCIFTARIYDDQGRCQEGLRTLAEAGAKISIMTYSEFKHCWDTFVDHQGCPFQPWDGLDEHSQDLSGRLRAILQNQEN

[28] = tested on: Vero; experiment: cells; type: functional; settings: Chlorocebus sabaeus

CCN1CCN(c2ccc(S(=O)(=O)N3CCCCC3)cc2NC(=O)COc2ccccc2)CC1
EC50 [1]: > 60 µM (not active) | EC50 [2]: 1.01 µM (active) | EC50 [3]: 6.68 µM (active)

CC1(C)CC(=O)c2c(-c3cccc(Br)c3)n[nH]c2C1
IC50 [4]: > 100 µM (not active) | IC50 [5]: > 100 µM (inactive) | IC50 [6]: > 100 µM (inactive)

O=C(CSc1nnc(-c2ccccc2Cl)[nH]1)c1ccc(O)c(O)c1
IC50 [4]: > 100 µM (not active) | IC50 [5]: 8.15 µM (active) | IC50 [6]: 1.36 µM (active)

Cc1ccc(C(=O)Nc2ccc3c(c2)OCO3)cc1S(=O)(=O)N1CCCCC1
EC50 [7]: 4.78 µM (active)

CN1CC=C(/C=C/c2ccc(-c3ccccc3)cc2)CC1
EC50 [1]: 8.86 µM (active) | CC50 [8]: 8.12 µM (active) | EC50 [2]: 2.12 µM (active) | CC50 [9]: 23.7 µM (active) | CC50 [10]: 9.99 µM (active) | CC50 [11]: 12 µM (active) | IC50 [12]: 26.6 µM (active)

COc1ccc(C2C(O)C(c3c[nH]c4ccccc34)=NN2C(=O)CCl)cc1 (stereo not drawn)
EC50 [13]: 1.37 µM (inconclusive) | EC50 [14]: 1.13 µM (inconclusive) | EC50 [15]: 0.582 µM (active) | EC50 [16]: 8.2 µM (active) | EC50 [17]: > 30 µM (not active) | EC50 [18]: 11.1 µM (active) | IC50 [19]: 1.49 µM (active) | AC50 [20]: 2.19 µM (active) | AC50 [21]: 0.954 µM (active) | EC50 [22]: 0.622 µM (inconclusive) | AC50 [23]: 0.65 µM (active) | AC50 [24]: 2.56 µM (active) | EC50 [25]: 2.65 µM (inconclusive) | EC50 [26]: 0.443 µM (active)

Cc1cc(C)cc(NC(=S)N2CCN(c3ncc(C(F)(F)F)cc3Cl)CC2)c1
EC50 [3]: 2.66 µM (active)

O=C(c1cc(-c2cc(F)c(Cl)cc2Cl)n[nH]1)N1CCCCCC1
IC50 [4]: > 100 µM (not active) | IC50 [5]: > 100 µM (inactive) | IC50 [6]: > 100 µM (inactive)

CCN(CCNC(=O)CS(=O)(=O)Cc1nc(-c2cccc(OC)c2)oc1C)c1ccccc1
EC50 [7]: 1.49 µM (active)

Cc1cc(Nc2ccccc2)n(-c2ccc(Br)cc2)n1
EC50 [7]: 2.24 µM (active)

Cc1ccc(C(=O)NNC(=S)NC(=O)COc2ccccc2)cc1
IC50 [27]: 36.3 µM (active) | CC50 [28]: > 25 µM (active) | EC50 [3]: 1.5 µM (active)

CC(/C=C\C=C\c1ccccc1)=N\NC(=O)c1cncc(Br)c1
CC50 [9]: 35 µM (active) | CC50 [11]: > 20 µM (active) | IC50 [12]: 12 µM (active)
